# PMC8861050, “Design, synthesis and evaluation of novel 2-oxoindoline-based acetohydrazides as antitumor agents” (Scientific Reports, 2022)
# Test system: U937 cells
# Test: Annexin V-FITC/PI apoptosis assay
# Assay type: cell-based, human
# Conditions: 24 h
# Protocol: The Annexin V-FITC/PI dual staining assay was used to determine the percentage of apoptotic cells. U937 cells (5 × 10^5/mL per well) were plated in 6-well culture plates and allowed to grow for 24 h. In our first experiment, we examined the effects of 4f, 4h, 4n, 4o, 4p, and PAC-1 on apoptosis at 50 µM. In the second experiment, we examined the dose-dependent effect of 4o at 5, 10, and 30 µM and PAC-1 at 30 µM on apoptosis. The cells were treated with compounds for 24 h, and then harvested. The harvested cells were washed twice with ice-cold PBS and incubated in the dark at room temperature in […] of 1 × binding buffer containing 1 µL Annexin V-FITC and […] PI. After 15 min incubation, cells were analyzed for percentage undergoing apoptosis using a FACScalibur flow cytometer (BD Biosciences). The data were processed using Cell Quest Pro software (BD Biosciences).
# Figure 5 Apoptosis (Annexin V/PI) analysis of cells after treatment with some compounds. U937 cells were treated with compounds (50 µM) for 24 h. The harvested cells were incubated with Annexin V-FITC and PI and analyzed by using flow cytometry. Ten thousand cells were acquired (n = 3). UN untreated, VH vehicle (DMSO. 0.1%). Representative dot plots (A). Live cells, left down in dot plot. Early apoptotic cells, right down. Necrotic cells, left up, Late apoptotic cells, right up. Bar graph of late apoptotic cells (B). p values were calculated using one-way ANOVA in GraphPad Software (San Diego, CA, USA). *p < 0.01 vs VH control. TEXT PRINTED IN THE PICTURE: (A) PAC-1: 10.40%; 29.30%; 12.70% | (A) 4f: 0.52%; 6.05%; 5.41% | (A) 4h: 0.89%; 13.20%; 7.67% | (A) 4n: 0.44%; 6.83%; 5.73% | (A) 4o: 0.67%; 17.30%; 8.17% | (A) 4p: 1.60%; 13.00%; 5.86% DOUBTS OF THE COPYIST ABOUT THIS PICTURE: The quadrant percentages are in small italic print over the dot plots, so 3, 5, 6, 8 and 9 cannot always be told apart. All values given are best readings. / PAC-1: 10.40%, 29.30% and 12.70% are best readings (29.30 could be 28.30) / 4f: 0.52%, 6.05% and 5.41% are best readings (6.05 could be 6.06 or 8.05) / 4h: 0.89%, 13.20% and 7.67% are best readings (0.89 could be 0.86 or 0.69) / 4n: 0.44%, 6.83% and 5.73% are best readings (6.83 could be 6.63 or 6.88) / 4o: 0.67%, 17.30% and 8.17% are best readings (8.17 could be 6.17) / 4p: 1.60%, 13.00% and 5.86% are best readings (5.86 could be 5.88 or 5.66) / The picture prints no measure for the percentages; only their quadrant position tells them apart. They are listed upper left, upper right, lower right. / The plots UN (0.70%, 2.31%, 3.03%) and VH (1.75%, 2.43%, 3.57%) are controls, not substances, and are left out of the lines.
# Figure 6 Apoptosis (Annexin V/PI) analysis of cells after treatment with different concentrations of compound 4o. U937 cells were treated with compound 4o at 5, 10 and 30 µM or PAC-1 (30 µM) for 24 h. The harvested cells were incubated with Annexin V-FITC and PI and analyzed by using flow cytometry. Ten thousand cells were acquired (n = 3). UN untreated, VH vehicle (DMSO. 0.1%). Representative dot plots (A). Live cells, left down in dot plot. Early apoptotic cells, right down. Necrotic cells, left up, Late apoptotic cells, right up. Bar graph of late apoptotic cells (B). p values were calculated using one-way ANOVA in GraphPad Software (San Diego, CA, USA). *p < 0.01 vs VH control.
compound,measurement,setting,value
"COc1ccc(/C=N/NC(=O)CN2C(=O)Cc3cc(F)ccc32)c(O)c1 [Compound 4o, (E)-N'-(2-Hydroxy-4-methoxybenzylidene)-2-(5-fluoro-2-oxoindolin-1-yl)acetohydrazide]","Late apoptotic cell population, dose dependence","U937, 5 µM",increased late apoptotic cell population
same,Apoptotic effects compared among the representative compounds,"U937, 50 µM",more prominent
same,Induction of apoptosis (Annexin V-FITC/PI),"U937, 50 µM","induced early, and more substantially, late apoptosis"
